Like-named read-outs stand apart in the source and are kept apart here.
Experiments:
TRPA1 = TRPA1 overexpressing CHO cells and trigeminal neurons; cited from earlier work
IL-8 = IL-8 in HSIEC cells treated with TNF-α/IFN-γ; type: cell-based, human; details: single agent, escalating doses
IL-6 = IL-6 in HSIEC cells treated with TNF-α/IFN-γ; type: cell-based, human; details: single agent, escalating doses
Experimental: (§1) Cell Culture: Human primary small intestinal epithelial cells (HSIEC), purchased from Cell Biologics were cultured in Epithelial Cell Medium/w Kit. HSIEC cells were incubated at 37° C. in a humidified atmosphere of 5% CO2. HSIEC cells were treated with mycoplasma removal reagent BM-Cyclin (Roche) to ensure mycoplasma negative before treatment.
Induction of Inflammation in HSIECs and Treatment with Molecules of Interest: HSIEC cells grown to 80% confluence were treated with 10 ng/ml TNF-α/IFN-γ (Sigma) (Yang et al., 2015), for the time points indicated in FIG. 9, to assess the best time point for determination of anti-inflammatory potential of the molecules and formulations of interest. To do so, COX-2, an enzyme which mediates the bioconversion of arachidonic acid to inflammatory prostaglandins (PGs), was measured via densitometry. GAPDH was used as a reference housekeeping marker for relative densitometry measures. […] The anti-inflammatory potential of the molecules and formulations of interest were evaluated at 48 hours post-TNF-α/IFN-γ treatment in the HSIEC assays described below due to reduced variability and ability to assess differences between treatments. Ethanol or DMSO was used, as indicated in the figures, as a vehicle for dilution and as a negative control showing the amount of the inflammatory marker present when inflammation was not induced. […]

COX-2 = COX-2 in HSIEC cells treated with TNF-α/IFN-γ (western blot, densitometry); type: cell-based, human; details: single agent, escalating doses
Experimental: as §1
To do so, COX-2, an enzyme which mediates the bioconversion of arachidonic acid to inflammatory prostaglandins (PGs), was measured via densitometry. GAPDH was used as a reference housekeeping marker for relative densitometry measures. […] Ethanol or DMSO was used, as indicated in the figures, as a vehicle for dilution and as a negative control showing the amount of the inflammatory marker present when inflammation was not induced.
Increasing doses of each molecule of interest, or each combination of molecules of interest, were then distributed to the HSIEC cells treated to induce inflammatory response. Inflammatory markers COX-2 and/or IL-6 were assessed at specific timepoints after induction of inflammation for protein content marker measured via western blot. GAPDH was used as a reference housekeeping marker for relative densitometry measures of protein content.

[1] = tested on: Human primary small intestinal epithelial cells (HSIEC)

In the case of `CCCCCc1cc(O)c2c(c1)OC(C)(C)c1ccc(C)cc1-2` [cannabinol], the TRPA1 activation (TRPA1) is listed as “activate TRPA1”.
In the case of `Cc1ccc(C(C)C)cc1O` [carvacrol], the “doses resulting in reduction of IL-8” value (IL-8) is reported as “all doses”, the “doses resulting in reduction of IL-6” value (IL-6) is reported as 10 µM and the “doses reducing COX-2 to the greatest extent” value (COX-2) is reported as 5 µM. For the same compound, the “effect on cell growth / cellular metabolic activity (MTT, words)” value [1] was “could only be studied at very low dose”, the “Cellular Metabolic Activity” value ([1]; 5 μM, 24 h) was 0.072 and the “Cellular Metabolic Activity” value ([1]; 5 μM, 48 h) was 0.175. For the same compound, the “Cellular Metabolic Activity” value ([1]; 5 μM, 72 h) was 0.261, the “Cellular Metabolic Activity” value ([1]; 5 μM, 96 h) was 0.501 and the “Cellular Metabolic Activity” value ([1]; 5 μM, time 0) was 0.022. The “Cellular Metabolic Activity” value ([1]; 10 μM, 24 h) was 0.070, the “Cellular Metabolic Activity” value ([1]; 10 μM, 48 h) was 0.164 and the “Cellular Metabolic Activity” value ([1]; 10 μM, 72 h) was 0.267. The “Cellular Metabolic Activity” value ([1]; 10 μM, 96 h) was 0.487, the “Cellular Metabolic Activity” value ([1]; 10 μM, time 0) was 0.021 and the “Cellular Metabolic Activity” value ([1]; 20 μM, 24 h) was 0.071. The “Cellular Metabolic Activity” value ([1]; 20 μM, 48 h) was 0.171, the “Cellular Metabolic Activity” value ([1]; 20 μM, 72 h) was 0.266 and the “Cellular Metabolic Activity” value ([1]; 20 μM, 96 h) was 0.461. The “Cellular Metabolic Activity” value ([1]; 20 μM, time 0) was 0.022, the “Cellular Metabolic Activity” value ([1]; 40 μM, 24 h) was 0.070 and the “Cellular Metabolic Activity” value ([1]; 40 μM, 48 h) was 0.159. The “Cellular Metabolic Activity” value ([1]; 40 μM, 72 h) was 0.272, the “Cellular Metabolic Activity” value ([1]; 40 μM, 96 h) was 0.544 and the “Cellular Metabolic Activity” value ([1]; 40 μM, time 0) was 0.022. For the same compound, the “Cellular Metabolic Activity” value ([1]; 80 μM, 24 h) was 0.076, the “Cellular Metabolic Activity” value ([1]; 80 μM, 48 h) was 0.120 and the “Cellular Metabolic Activity” value ([1]; 80 μM, 72 h) was 0.221. For the same compound, the “Cellular Metabolic Activity” value ([1]; 80 μM, 96 h) was 0.423, the “Cellular Metabolic Activity” value ([1]; 80 μM, time 0) was 0.025 and the “Cellular Metabolic Activity” value ([1]; 100 μM, 24 h) was 0.069. The “Cellular Metabolic Activity” value ([1]; 100 μM, 48 h) was 0.106, the “Cellular Metabolic Activity” value ([1]; 100 μM, 72 h) was 0.259 and the “Cellular Metabolic Activity” value ([1]; 100 μM, 96 h) was 0.397. For the same compound, the “Cellular Metabolic Activity” value ([1]; 100 μM, time 0) was 0.026, the “Cellular Metabolic Activity” value ([1]; 200 μM, 24 h) was 0.061 and the “Cellular Metabolic Activity” value ([1]; 200 μM, 48 h) was 0.088. The “Cellular Metabolic Activity” value ([1]; 200 μM, 72 h) was 0.179, the “Cellular Metabolic Activity” value ([1]; 200 μM, 96 h) was 0.238 and the “Cellular Metabolic Activity” value ([1]; 200 μM, time 0) was 0.027. For the same compound, the “Cellular Metabolic Activity” value ([1]; 400 μM, 24 h) was 0.062, the “Cellular Metabolic Activity” value ([1]; 400 μM, 48 h) was 0.079 and the “Cellular Metabolic Activity” value ([1]; 400 μM, 72 h) was 0.139. For the same compound, the “Cellular Metabolic Activity” value ([1]; 400 μM, 96 h) was 0.137 and the “Cellular Metabolic Activity” value ([1]; 400 μM, time 0) was 0.027.
